Measurements reported in PubChem BioAssay (NCI).
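48-hour exposure; five concentrations; linearly interpolated endpoints. At the GI50, growth is halved. TGI: total growth inhibition.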

How the values were obtained:
Test in all cases: DTP human tumour cell line panel, 48 h
786-0 renal = test system: 786-0 renal
A498 renal = test system: A498 renal
A549 NSCLC = test system: A549 NSCLC
ACHN renal = test system: ACHN renal
BT-549 breast = test system: BT-549 breast
CAKI-1 renal = test system: CAKI-1 renal
CCRF-CEM leukemia = test system: CCRF-CEM leukemia
COLO 205 colon = test system: COLO 205 colon
DU-145 prostate = test system: DU-145 prostate
EKVX NSCLC = test system: EKVX NSCLC
HCC-2998 colon = test system: HCC-2998 colon
HCT-116 colon = test system: HCT-116 colon
HCT-15 colon = test system: HCT-15 colon
HL-60(TB) leukemia = test system: HL-60(TB) leukemia
HOP-62 NSCLC = test system: HOP-62 NSCLC
HOP-92 NSCLC = test system: HOP-92 NSCLC
HS 578T breast = test system: HS 578T breast
HT29 colon = test system: HT29 colon
IGROV1 ovarian = test system: IGROV1 ovarian
K-562 leukemia = test system: K-562 leukemia
KM12 colon = test system: KM12 colon
LOX IMVI melanoma = test system: LOX IMVI melanoma
M14 melanoma = test system: M14 melanoma
MALME-3M melanoma = test system: MALME-3M melanoma
MCF7 breast = test system: MCF7 breast
MDA-MB-231 breast = test system: MDA-MB-231 breast
MDA-MB-435 = test system: MDA-MB-435
MOLT-4 leukemia = test system: MOLT-4 leukemia
NCI-H226 lung = test system: NCI-H226 lung
NCI-H23 lung = test system: NCI-H23 lung
NCI-H460 lung = test system: NCI-H460 lung
NCI-H522 lung = test system: NCI-H522 lung
NCI/ADR-RES ovarian = test system: NCI/ADR-RES ovarian
OVCAR-3 ovarian = test system: OVCAR-3 ovarian
OVCAR-4 ovarian = test system: OVCAR-4 ovarian
OVCAR-8 ovarian = test system: OVCAR-8 ovarian
PC-3 prostate = test system: PC-3 prostate
RPMI-8226 leukemia = test system: RPMI-8226 leukemia
RXF 393 renal = test system: RXF 393 renal
SF-268 CNS = test system: SF-268 CNS
SF-295 CNS = test system: SF-295 CNS
SF-539 CNS = test system: SF-539 CNS
SK-MEL-2 melanoma = test system: SK-MEL-2 melanoma
SK-MEL-28 melanoma = test system: SK-MEL-28 melanoma
SK-MEL-5 melanoma = test system: SK-MEL-5 melanoma
SK-OV-3 ovarian = test system: SK-OV-3 ovarian
SN12C renal = test system: SN12C renal
SNB-19 CNS = test system: SNB-19 CNS
SNB-75 CNS = test system: SNB-75 CNS
SR leukemia = test system: SR leukemia
SW-620 colon = test system: SW-620 colon
T-47D breast = test system: T-47D breast
TK-10 renal = test system: TK-10 renal
U251 CNS = test system: U251 CNS
UACC-257 melanoma = test system: UACC-257 melanoma
UACC-62 melanoma = test system: UACC-62 melanoma
UO-31 renal = test system: UO-31 renal

`CN1C(NC(=O)c2ccc(Cl)nc2)=NS(=O)(=O)c2cc(Cl)ccc21` was tested, and the GI50 (786-0 renal) was > 100 µM, the TGI (786-0 renal) was > 100 µM and the GI50 (A498 renal) was > 100 µM. For the same compound, the TGI (A498 renal) was > 100 µM, the GI50 (A549 NSCLC) was > 100 µM and the TGI (A549 NSCLC) was > 100 µM. The GI50 (ACHN renal) was > 100 µM, the TGI (ACHN renal) was > 100 µM and the GI50 (BT-549 breast) was > 100 µM. For the same compound, the TGI (BT-549 breast) was > 100 µM, the GI50 (CAKI-1 renal) was > 100 µM and the TGI (CAKI-1 renal) was > 100 µM. For the same compound, the GI50 (CCRF-CEM leukemia) was > 100 µM, the TGI (CCRF-CEM leukemia) was > 100 µM and the GI50 (COLO 205 colon) was > 100 µM. For the same compound, the TGI (COLO 205 colon) was > 100 µM, the GI50 (DU-145 prostate) was > 100 µM and the TGI (DU-145 prostate) was > 100 µM. For the same compound, the GI50 (EKVX NSCLC) was > 100 µM, the TGI (EKVX NSCLC) was > 100 µM and the GI50 (HCC-2998 colon) was > 100 µM. The TGI (HCC-2998 colon) was > 100 µM, the GI50 (HCT-116 colon) was > 100 µM and the TGI (HCT-116 colon) was > 100 µM. For the same compound, the GI50 (HCT-15 colon) was > 100 µM, the TGI (HCT-15 colon) was > 100 µM and the GI50 (HL-60(TB) leukemia) was > 100 µM. The TGI (HL-60(TB) leukemia) was > 100 µM, the GI50 (HOP-62 NSCLC) was > 100 µM and the TGI (HOP-62 NSCLC) was > 100 µM. The GI50 (HOP-92 NSCLC) was > 100 µM, the TGI (HOP-92 NSCLC) was > 100 µM and the GI50 (HS 578T breast) was > 100 µM. The TGI (HS 578T breast) was > 100 µM, the GI50 (HT29 colon) was > 100 µM and the TGI (HT29 colon) was > 100 µM. The GI50 (IGROV1 ovarian) was > 100 µM, the TGI (IGROV1 ovarian) was > 100 µM and the GI50 (K-562 leukemia) was > 100 µM. The TGI (K-562 leukemia) was > 100 µM, the GI50 (KM12 colon) was > 100 µM and the TGI (KM12 colon) was > 100 µM. The GI50 (LOX IMVI melanoma) was > 100 µM, the TGI (LOX IMVI melanoma) was > 100 µM and the GI50 (M14 melanoma) was > 100 µM. The TGI (M14 melanoma) was > 100 µM, the GI50 (MALME-3M melanoma) was > 100 µM and the TGI (MALME-3M melanoma) was > 100 µM. For the same compound, the GI50 (MCF7 breast) was > 100 µM, the TGI (MCF7 breast) was > 100 µM and the GI50 (MDA-MB-231 breast) was > 100 µM. The TGI (MDA-MB-231 breast) was > 100 µM, the GI50 (MDA-MB-435) was > 100 µM and the TGI (MDA-MB-435) was > 100 µM. The GI50 (MOLT-4 leukemia) was > 100 µM, the TGI (MOLT-4 leukemia) was > 100 µM and the GI50 (NCI-H226 lung) was > 100 µM. For the same compound, the TGI (NCI-H226 lung) was > 100 µM, the GI50 (NCI-H23 lung) was > 100 µM and the TGI (NCI-H23 lung) was > 100 µM. The GI50 (NCI-H460 lung) was > 100 µM, the TGI (NCI-H460 lung) was > 100 µM and the GI50 (NCI-H522 lung) was > 100 µM. For the same compound, the TGI (NCI-H522 lung) was > 100 µM, the GI50 (NCI/ADR-RES ovarian) was > 100 µM and the TGI (NCI/ADR-RES ovarian) was > 100 µM. The GI50 (OVCAR-3 ovarian) was > 100 µM, the TGI (OVCAR-3 ovarian) was > 100 µM and the GI50 (OVCAR-4 ovarian) was > 100 µM. For the same compound, the TGI (OVCAR-4 ovarian) was > 100 µM, the GI50 (OVCAR-8 ovarian) was > 100 µM and the TGI (OVCAR-8 ovarian) was > 100 µM. The GI50 (PC-3 prostate) was > 100 µM, the TGI (PC-3 prostate) was > 100 µM and the GI50 (RPMI-8226 leukemia) was > 100 µM. The TGI (RPMI-8226 leukemia) was > 100 µM, the GI50 (RXF 393 renal) was > 100 µM and the TGI (RXF 393 renal) was > 100 µM. The GI50 (SF-268 CNS) was > 100 µM, the TGI (SF-268 CNS) was > 100 µM and the GI50 (SF-295 CNS) was > 100 µM. For the same compound, the TGI (SF-295 CNS) was > 100 µM, the GI50 (SF-539 CNS) was > 100 µM and the TGI (SF-539 CNS) was > 100 µM. The GI50 (SK-MEL-2 melanoma) was > 100 µM, the TGI (SK-MEL-2 melanoma) was > 100 µM and the GI50 (SK-MEL-28 melanoma) was > 100 µM. For the same compound, the TGI (SK-MEL-28 melanoma) was > 100 µM, the GI50 (SK-MEL-5 melanoma) was > 100 µM and the TGI (SK-MEL-5 melanoma) was > 100 µM. The GI50 (SK-OV-3 ovarian) was > 100 µM, the TGI (SK-OV-3 ovarian) was > 100 µM and the GI50 (SN12C renal) was > 100 µM. The TGI (SN12C renal) was > 100 µM, the GI50 (SNB-19 CNS) was > 100 µM and the TGI (SNB-19 CNS) was > 100 µM. For the same compound, the GI50 (SNB-75 CNS) was > 100 µM, the TGI (SNB-75 CNS) was > 100 µM and the GI50 (SR leukemia) was > 100 µM. For the same compound, the TGI (SR leukemia) was > 100 µM, the GI50 (SW-620 colon) was > 100 µM and the TGI (SW-620 colon) was > 100 µM. The GI50 (T-47D breast) was > 100 µM, the TGI (T-47D breast) was > 100 µM and the GI50 (TK-10 renal) was > 100 µM. For the same compound, the TGI (TK-10 renal) was > 100 µM, the GI50 (U251 CNS) was > 100 µM and the TGI (U251 CNS) was > 100 µM. For the same compound, the GI50 (UACC-257 melanoma) was > 100 µM, the TGI (UACC-257 melanoma) was > 100 µM and the GI50 (UACC-62 melanoma) was > 100 µM. For the same compound, the TGI (UACC-62 melanoma) was > 100 µM, the GI50 (UO-31 renal) was > 100 µM and the TGI (UO-31 renal) was > 100 µM.
